From US6583127B1, “Use of etherlysophospholipids as antiinflammatory agents” (Inkeysa. SA, priority 1998, dated 2003)

Experiments:
[1] = tested on: bentonite-induced skin edema in mice; experiment: Bentonite-induced skin edema in mice; format: in vivo; conditions: for Area (area below the curve of difference between right and left pad diameter) / Inhibition of the inflammatory process: mice; for Inhibition of the inflammatory process: versus inflamed control
Text: Mice were individually identified with an ear code and were kept in groups of 6 per cage (Makrolon: 47.6×22.7×14.5 cm). Each cage was individually labelled with the n^o. of the study, type of treatment, doses used and route of administration, as well as the name of the director of the study, number and gender of contained animals, date of arrival and of the beginning of the experiment.
The animals had free access to mouse standard chow (UAR A04C; Usine d'Alimentation Rationelle, 91360-Villemoisson sur Orge, Francia; lot nos. 70520 and 70722). Drinking water access was ad libitum. The water, supplied by the Compañia de Aguas de Sabadell, S.A., is routinely analysed for the presence of possible contaminants. The temperature in the animal rooms was 22±3° C., with sporadic peaks of 26° C.; air humidity was 60±10%, with sporadic peaks of 80%. Daily light (between 7:00 h and 19:00 h) and dark phases were installed automatically.
Upon arrival, all animals were allowed to rest in the facilities for 8 days before use in the experiment. Table 2 indicates the six random groups of 10 mice each were set for experimentation.
The diameter of both hind pads of all mice was measured at day 0 and set as the basal value. Edema was then induced by injecting s.c. 13.3 mg/ml bentonite in 0.03 ml PBS into the right food pad. The corresponding mice were given daily the different compounds orally for 21 days. The inflamed control group was given 0.2 ml PBS only. The diameter of hind pads, as well as the body weight, was then measured every other day.
In each experimental group the average value, the standard deviation (SD) and the standard error was determined for the two parameters studied (hind pad diameter and body weight). The factor variance analysis (FVA) was used to compare the values obtained in the different groups. Where statistically significant differences were observed, the Duncan-Kramer test for a p<0.05 was applied.
The area below the curves corresponding to the diameters of the right and left pads was calculated and the evolution of the difference between them were plotted (FIGS. 7 and 8). The anti-inflammatory capacity of the different substances was evaluated as the extent of inhibition of the inflammatory process that was calculated with the formula [formula]
where C is the area below the inflammed control group and T the area below the different treatment groups.

[2] = tested on: PGE2 production in murine fibroblasts 3T3; experiment: PGE2 measurement in 3T3 cells (enzyme immunoassay); format: cell-based, Mouse; conditions: for pg PGE2 (intracellular): 3T3 cells, 20 min at 37° C., Control 112 ± 21; for effect on PGE2 production (in words): 3T3 fibroblasts, ionomycin-induced PGE2
Procedure: Cell culture. Human promyelocytic HL-60 cells and promonocytic U937 cells were grown in RPMI-1640 culture medium supplemented with 10% (v/v) heat-inactivated fetal calf serum, 2 mM L-glutamine, 100 units/ml penicillin and 24 μg/ml gentamicin. Mouse 3T3 fibroblasts were grown in Dulbecco's modified Eagle's medium (DMEM) supplemented with 10% (v/v) heat-inactivated fetal calf serum, 2 mM L-glutamine, 100 units/ml penicillin and 24 μg/ml gentamicin. Cells were incubated at 37° C. in a humidified atmosphere at 5% CO2 and 95% air.
Prostaglandin E2 (PGE2) measurement. 3T3 cells (1.5×10^5 in 100 μl in complete DMEM culture medium) were incubated overnight at 37° C. (5% CO2) in 96-well microtitre plates (tissue-culture grade). Then, the distinct agents were added in 100 μl complete DMEM culture medium for 20 min at 37° C. After washing thoroughly the cells with PBS, cells were lysed and intracellular PGE2 was measured using an enzyme immunoassay kit (Amersham Pharmacia Biotech, Buckinghamshire, UK) following the manufacturer's instructions. Data obtained in duplicate measurements were converted into actual amounts of PGE2 using a calibration curve run in parallel with defined amounts of PGE2.

[3] = tested on: experimental colitis induced by TNB (2,4,6-trinitrobenzenesulphonic acid); experiment: Rat model of experimental colitis induced by TNB, macroscopic evaluation; format: in vivo; parameters: Wet Weight (colon): unit not given beside the values; conditions: Wistar rat, 2.5 mg/Kg p.o.; for Wet Weight (colon) / Sample 2 × 6 mm / Score (0-10) / Weight/mm: Mean ± SEM
Procedure: The therapeutic potential for the treatment of ulcerative colitis of IEC01 at 2.5 and 5 mg/kg and IES01 at 2.5 mg/kg, was evaluated after their administration by oral route during 14 days (7 days of preventive treatment and 7 days of therapeutic treatment) using the rat model of experimental colitis induced by TNB (2,4,6-trinitrobenzenesulphonic acid). As reference parameters, the body weight, wet colon weight and score macroscopic evaluation were evaluated after 24 hours and after 7 days of the intraluminal administration of TNB in the colon. […] The inflammatory response is recognised by the presence of ulcerative fissures, faecal shatters and inflammation of bowel wall. A chronic inflammatory response was observed 7 days after the administration. An erratic response with lineal or punctual ulcers, necrosis, faecal shatters, reduction of colonic lumen, granulomas and peritoneal adherence was observed.

[4] = Body weight evaluation in the TNB colitis rat model; format: in vivo; conditions: Wistar rat, 2.5 mg/Kg p.o.; Mean ± SEM
Procedure: The therapeutic potential for the treatment of ulcerative colitis of IEC01 at 2.5 and 5 mg/kg and IES01 at 2.5 mg/kg, was evaluated after their administration by oral route during 14 days (7 days of preventive treatment and 7 days of therapeutic treatment) using the rat model of experimental colitis induced by TNB (2,4,6-trinitrobenzenesulphonic acid). As reference parameters, the body weight, wet colon weight and score macroscopic evaluation were evaluated after 24 hours and after 7 days of the intraluminal administration of TNB in the colon.

[5] = tested on: PGE2 synthesis in human mucosal gastric biopsies; experiment: Ex vivo PGE2 synthesis in human mucosal gastric biopsies; conditions: for pg PGE2/mg (weight): human mucosal gastric biopsies, agents 10 μM, 20 min at 37° C., Control 115 ± 26, mean ± S.D., three experiments
Procedure: The ability of the gastric mucosa to generate prostaglandins estimates total cyclooxygenase (COX) activity (COX-1 plus any COX-2). To measure ex vivo prostaglandin E2 (PGE2) synthesis, normal gastric mucosal biopsies were immediately placed in Ependorff tubes containing phosphate-buffered saline (PBS). […] Each mucosal gastric biopsy was cut into different pieces (about 1 mg weight) that were subsequently weighed and incubated in the absence or in the presence of the distinct agents indicated in the corresponding Table for 20 min at 37° C. in 200 μl Hepes-glucose buffer. Then cells were mucosal gastric samples were pelleted by centrifugation, lysed and intracellular PGE2 was measured using an enzyme immunoassay kit (Amersham Pharmacia Biotech, Buckinghamshire, UK) following the manufacturer's instructions. Prostaglandin synthesis is expressed as picograms of PGE2 synthesised per mg of tissue incubation. Each experiment corresponded to the use of one biopsy, in order to avoid variability among different biopsies. Normal volunteers without a previous pharmacological treatment were selected for these assays. The normal gastroduodenal mucosa was visually assessed by endoscopy.
Human mucosal gastric biopsies were cut into about 1 mg pieces, incubated with the indicted agents (10 μM) for 20 min at 37° C. in Hepes-glucose buffer, and then the intracellular content of PGE2 was determined as described in the Methods section. Untreated control samples were run in parallel. Data are shown as mean Values+S.D. from three independent experiments.

[6] = tested on: HLA; conditions: human neutrophils, 10 ng/ml; Medium = 100
Procedure: Isolation and treatment of neutrophils. Human neutrophils were obtained from fresh peripheral blood by dextran sedimentation and centrifugation on Ficoll-Hypaque followed by hypotonic lysis of residual erythrocytes. […] Cells were resuspended at 3×10^6 neutrophils/ml in HEPES/glucose buffer (150 mM NaCl, 5 mM KCl, 10 mM HEPES, 1.2 mM MgCl2, 1.3 mM CaCl2, 5.5 mM glucose, pH 7.5), and incubated in the absence or presence of distinct agents at 37° C. for the times indicated in the respective legends to figures. Subsequently, cells were pelleted by centrifugation and saved to determine the content of different cell surface antigens by flow cytometry.
Monoclonal antibodies. The following monoclonal antibodies were used: TS1/11 anti-CD11a, Bear-1 anti-CD11b, TP1/36.1 anti-CD43, HP2/9 anti-CD44, Leu-8 anti-L-selectin, and W6/32, specific for a monomorphic determinant on HLA-A, B molecules. P3X63 myeloma culture supernatant was used as a negative control. The antibodies are commercially available.
Immunofluorescence flow cytometry. Immunofluorescence flow cytometry analysis was performed in a FACStar-Plus and a FACScan flow cytometers (Becton-Dickinson). Neutrophils were incubated at 4° C. with the corresponding monoclonal antibody followed by washing and labelling with a fluorescein isothiocyanate (FITC)-labelled-goat anti-mouse IgG antibody (DAKO, Glostrup, Denmark). Mean fluorescence intensity (MFI) in linear scale was obtained from at least 7000 cells in each sample, and the fluorescence produced by the myeloma P3X63 supernatant was considered as background. Results were expressed as relative MFI (rMFI), such that
(§1) rMFI=(MFIagent×100)/MFImedium
(§2) Background fluorescence was substracted from all values.

[7] = tested on: L-selectin (CD62L); experiment: Cell surface expression of L-selectin in human neutrophils (immunofluorescence flow cytometry); format: cell-based
Text: (§3) Isolation and treatment of neutrophils.
(§4) Monoclonal antibodies. […] The antibodies are commercially available.
(§5) Immunofluorescence flow cytometry. […] Results were expressed as relative MFI (rMFI), such that
as §1, §2

[8] = tested on: CD44; experiment: Cell surface expression of CD44 in human neutrophils (immunofluorescence flow cytometry); format: cell-based; conditions: 10 ng/ml, Medium = 100
Text: as §3, §4, §5, §1, §2

[9] = tested on: CD11b; experiment: Cell surface expression of CD11b in human neutrophils (immunofluorescence flow cytometry); format: cell-based; conditions: 10 ng/ml, rMFI=(MFIagent×100)/MFImedium, Medium = 100
Text: as §3, §4, §5, §1, §2

[10] = tested on: CD43; experiment: Cell surface expression of CD43 in human neutrophils (immunofluorescence flow cytometry); format: cell-based; conditions: 10 ng/ml, Medium = 100
Text: as §3, §4, §5, §1, §2

[11] = tested on: CD11a; experiment: Cell surface expression of CD11a in human neutrophils (immunofluorescence flow cytometry); format: cell-based; conditions: 10 ng/ml, Medium = 100
Text: as §3, §4, §5, §1, §2

[12] = tested on: L-selectin (CD62L); conditions: literature value, González-Alvaro et al., J. Rheumatol., 23, 723 (1996); cited from earlier work
[13] = 2.5 mg/kg orally daily for 21 days
[14] = 5 mg/kg orally daily for 21 days
[15] = after 24 hours of intraluminal administration
[16] = after 7 days of intraluminal administration
[17] = 2 mg/kg orally daily for 21 days

CCCCCCCCCCCCCCCCOCC(COP(=O)(O)OCC(N)C(=O)O)OC (stereo not drawn) [IES01]
times more efficient in inhibiting inflammation than indomethacin, at the molecular level ([1]; 2.5 mg/kg versus indomethacin 2 mg/kg, taking molecular weights into account): 3.8 times | Area (area below the curve of difference between right and left pad diameter) [1, 13]: 4.4 ± 0.63 A.U. | Inhibition of the inflammatory process [1, 13]: 43.8% | Area (area below the curve of difference between right and left pad diameter) [1, 14]: 5.6 ± 0.70 A.U. | Inhibition of the inflammatory process [1, 14]: 28.3% | pg PGE2 (intracellular) ([2]; 10 μM): 192 ± 25 pg | effect on PGE2 production (in words) [2]: no significant inhibition | % (inhibition, Sample 2 × 6 mm) [3, 15]: 80.2% | % (inhibition, Score) [3, 15]: 65.7% | % (inhibition, Weight/mm) [3, 15]: 75.2% | % (inhibition, Wet Weight) [3, 15]: 75.3% | Wet Weight (colon) ([3]; after 24 hours of intraluminal administration in the colon): 1.425 ± 0.20 | Sample 2 × 6 mm [3, 15]: 272.70 ± 44.43 mg | Score (0-10) [3, 15]: 3.2 ± 0.86 | Weight/mm [3, 15]: 0.158 ± 0.02 | % (inhibition, Sample 2 × 6 mm) [3, 16]: 31.7% | % (inhibition, Weight/mm) [3, 16]: 11.1% | % (inhibition, Wet Weight) [3, 16]: 11.1% | Wet Weight (colon) ([3]; after 7 days of intraluminal administration in the colon): 1.365 ± 0.24 | % (inhibition, Score) ([3]; after 7 days of intraluminal administration, 2.5 mg/kg): 50% | Sample 2 × 6 mm [3, 16]: 185.04 ± 23.18 mg | Score (0-10) [3, 16]: 2.0 ± 0.84 | Weight/mm [3, 16]: 0.151 ± 0.03 | Body weight DAY 1 [4]: 232.3 ± 2.68 g | Body weight DAY 2 [4]: 234.5 ± 2.94 g | Body weight DAY 4 [4]: 241.9 ± 2.40 g | Body weight DAY 7 [4]: 211.4 ± 2.48 g | Body weight DAY 8 [4]: 218.8 ± 3.57 g | Body weight DAY 11 [4]: 244.4 ± 4.95 g | Body weight DAY 12 [4]: 250.0 ± 4.72 g | Body weight DAY 13 [4]: 249.8 ± 6.84 g | Body weight DAY 14 [4]: 254.0 ± 8.44 g

COc1ccc2c(c1)c(CC(=O)O)c(C)n2C(=O)c1ccc(Cl)cc1 [Indomethacin, reference compound]
Area (area below the curve of difference between right and left pad diameter) [1, 17]: 6.6 ± 0.92 A.U. | Inhibition of the inflammatory process [1, 17]: 15.3% | pg PGE2 (intracellular) ([2]; 50 μM): 4 ± 2 pg | effect on PGE2 production (in words) [2]: almost completely inhibited | pg PGE2/mg (weight) [5]: 7 ± 2 pg PGE2/mg | effect on mucosal PGE2 synthesis (in words) ([5]; normal mucosal gastric biopsies, ex vivo): completely blocked

C[C@H](CCC(=O)O)C[C@H](C)C[C@H](C)C(=O)/C=C(\O)[C@H](C)C[C@H](C)C/C=C/[C@@H](C)[C@@H](O)[C@@H](C)[C@@H](O)C[C@@H]1CC[C@@](C)([C@H]2CC[C@@](C)([C@@H](C)O)O2)O1 [Ionomycin, reference compound]
pg PGE2 (intracellular) ([2]; 50 μM): 486 ± 38 pg | pg PGE2/mg (weight) [5]: 308 ± 31 pg PGE2/mg

CCCCCCCCCCCCCC(=O)O[C@@H]1[C@@H](C)[C@@]2(O)[C@@H](C=C(CO)C[C@]3(O)C(=O)C(C)=C[C@@H]23)[C@@H]2C(C)(C)[C@]12OC(C)=O [PMA, reference compound]
HLA cell surface expression (rMFI) [6]: 96 ± 7 | L-Selectin cell surface expression (rMFI) ([7]; human neutrophils, 10 ng/ml, Medium = 100): 38 ± 7 | CD44 cell surface expression (rMFI) [8]: 49.5 ± 11 | CD11b cell surface expression (rMFI) [9]: 272 ± 22 | CD43 cell surface expression (rMFI) [10]: 33.5 ± 9 | CD11a cell surface expression (rMFI) [11]: 95 ± 8

O=C(O)COC(=O)Cc1ccccc1Nc1c(Cl)cccc1Cl [aceclofenac, reference compound]
IC50 ([7]; converted from μg/ml values, read-out: IC50 for L-selectin down-regulation, corrected for molecular weight): 14.1 µM | IC50 for L-selectin down-regulation [12]: 5 µg/mL
